This series in a line: Clearance of PBD drug-linker from conjugation reaction mixture by tangential flow filtration (constant volume diafiltration). Conditions: Example 8; without cyclodextrin; Tris, NaCl and 50% propylene glycol; clearance stalling after four diavolumes. How it is done:
The diafiltration (DF) process used an 88 cm^2 Ultracel Pellicon 3 cassette from Millipore with a 30 kD molecular weight pore size. The batch volume for the DF was 250 mL, the feed flow rate was 40 ml/min throughout the process, and the retentate valve was adjusted to maintain a trans-membrane pressure of ˜20 psi. The diafiltration buffer addition rate to maintain constant batch volume started at 9 mL/min, but was maintained at 13-14 ml/min through most of the process. Samples were removed after the completion of each diavolume. The concentration of hpb-CD was measured in each sample using an RP HPLC assay with evaporative light scattering detection.
This mixture was brought to 10 w/v % hpb-CD by addition of 25% volume of a 50 w/v % solution of hpb-CD in 50 mM Tris/5 mM EDTA, pH 8.0. […] The concentration of quenched drug-linker was determined in each sample. […] C and C0 are concentrations of the analyte measured, N is the number of diavolumes, and S is the sieving factor, defined as the analyte concentration on the permeate side of the membrane divided by the analyte concentration on the retentate side of the membrane. […]
The TFF process was performed on quenched conjugation reaction mixture using a 30 kD MW cutoff 0.1 m^2 Ultracel Pellicon 3 membrane (Millipore). […] The concentration of quenched PBD drug-linker was determined in each sample. […]

SMILES strings stand for the structures.

For `COc1ccc(C2=CN3C(=O)c4cc(OC)c(OCCCOc5cc6c(cc5OC)C(=O)N5C=C(c7ccc(NC(=O)[C@H](C)NC(=O)[C@@H](NC(=O)CCCCCN8C(=O)CC(SCC(NC(C)=O)C(=O)O)C8=O)C(C)C)cc7)C[C@H]5C=N6)cc4N=C[C@@H]3C2)cc1` (stereo partly shown) [compound 4], the “benzodiazepine drug-related impurity remaining in the mixture” value is 1.1 µM.
